From patent publication US9212168B2 (priority 2011, dated 2015)

Key:
HCV genotype 1b replicon = HCV genotype 1b replicon assay (Renilla luciferase readout); assay type: cell-based, hepatitis C virus; details: for EC50: Hepatitis C virus, read-out: Genotype 1b; for Genotype 1b: HCV genotype 1b replicon
Text: Assay 1: HCV Genotype 1b Replicon Assay
The HCV genotype 1b replicon cell line was obtained from Apath LLC (Brooklyn, N.Y.) (APC144; Huh7 cell background). This subgenomic replicon contains the N-terminus of the HCV core protein fused to the neomycin-resistance selectable marker. The EMCV IRES lies downstream and drives expression of humanized Renilla luciferase fused to the non-structural proteins NS3-NS5B. This cell line was used to determine compound potency using the luciferase activity readout as a measurement of compound inhibition of replicon levels.
Cells were grown at 37° C. in a 5% CO2 humidified incubator in DMEM (Invitrogen) with 10% FBS (HyClone), 1×NEAA (Invitrogen), 1× Pen-Strep (Invitrogen), and 500 μg/mL G418 (Invitrogen). On day 1 of the assay, cells were plated at 10,000 cells/well in white 96-well tissue culture plates (Costar) in 200 μL media lacking G418. Four hours later, once the cells have adhered, the media was removed and replaced with media (no G418) containing dose-responses of test compounds. Compounds were initially diluted in DMSO and then diluted another 200× in media to bring the final DMSO concentration down to 0.5%. The cells were incubated with test compounds for 48 hours. At the end of the incubation period, media and compound were removed from the plates and the luciferase activity was determined using Promega Renilla-Glo reagents.
To analyze the data, the luciferase activity was plotted vs. the compound concentration, and EC50 values were determined from a 4-parameter robust fit model with the GraphPad Prism software package (GraphPad Software, Inc., San Diego, Calif.). Results are expressed as the negative decadic logarithm of the EC50 value, pEC50.
Test compounds having a higher pEC50 value in this assay show greater inhibition of HCV genotype 1b replication.

HCV genotype 1a replicon = HCV genotype 1a replicon assay (NS3 protease activity readout); assay type: cell-based, hepatitis C virus; details: for EC50: Hepatitis C virus, read-out: Genotype 1a, HCV genotype 1a replicon; for Genotype 1a: HCV genotype 1a replicon
In short: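 EC50 values came from a 4-parameter robust fit of fluorescence (ex 340, em 509 nm) produced by NS3-specific protease in lysates, assayed with 15 μM FRET substrate for 20 min at 37° C, after 48 or 72 hours of compound exposure (0.5% DMSO) of Huh7.5-derived APC89 genotype 1a replicon cells.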

SMILES	EC50 (HCV genotype 1b replicon) [nM]	EC50 (HCV genotype 1a replicon) [nM]	Genotype 1b (HCV genotype 1b replicon)	Genotype 1a (HCV genotype 1a replicon)
COC(=O)N[C@H](C(=O)N1C[C@@H](SC)C[C@H]1c1nc(-c2ccc(-c3cc(Cl)c(C(=O)Nc4ccc(N5CCN(C(=O)C(C)(C)C)C[C@H]5C)nc4)cc3OC(F)(F)F)cc2)c[nH]1)C(C)C [Example 5-3]	< 0.1	< 0.1		
COC(=O)N[C@H](C(=O)N1C[C@@H](C#N)C[C@H]1c1nc(-c2ccc(-c3cc(Cl)c(NC(=O)c4ccc(N5CCN(C(=O)C(C)(C)C)C[C@H]5C)nc4)cc3OC(F)(F)F)cc2)c[nH]1)C(C)C [Example 15-11]	< 0.1	< 0.1		
COC(=O)N[C@H](C(=O)N1C[C@@H](C)C[C@H]1c1nc(-c2ccc(-c3cc(F)c(NC(=O)c4ccc(N5CCN(C(=O)C(C)(C)C)C[C@H]5C)nc4)cc3OC(F)(F)F)cc2)c[nH]1)[C@H](C)OC [Example 13-21]	< 0.1	< 0.1		
COC(=O)N[C@H](C(=O)N1C[C@@H](C)C[C@H]1c1nc(-c2ccc(-c3cc(Cl)c(NC(=O)c4ccc(N5CCN(C(=O)C(C)(C)CO)C[C@H]5C)nc4)cc3OC(F)(F)F)cc2)c[nH]1)C1CCOCC1 [Example 13-19]	< 0.1	< 0.1		
COC(=O)N[C@H](C(=O)N1C[C@@H](C)C[C@H]1c1nc(-c2ccc(-c3cc(F)c(NC(=O)c4ccc(N5CCN(C(=O)C(C)(C)C)C[C@H]5C)nc4)cc3F)cc2)c[nH]1)C(C)C [Example 1-82]			D (D represents pEC50>10 (EC50<0.1 nM))	C (C represents pEC50 between and 9 and about 10, (EC50 between 1 nM and 0.1 nM))
COC(=O)N[C@H](C(=O)N1C[C@@H](C)C[C@H]1c1nc(-c2ccc(-c3ccc(C(=O)Nc4ccc(N5CCN(C(=O)C(C)(C)C)C[C@H]5C)nc4)cc3OC(F)(F)F)cc2)c[nH]1)C1CCOCC1 [Example 22-3]			D (D represents pEC50>10 (EC50<0.1 nM))	D (D represents pEC50>10 (EC50<0.1 nM))
COC(=O)N[C@H](C(=O)N1C[C@@H](OC)C[C@H]1c1nc(-c2ccc(-c3cc(Cl)c(NC(=O)c4ccc(N5CCN(C(=O)C(C)(C)C)C[C@H]5C)nc4)cc3OC(F)(F)F)cc2)c[nH]1)[C@H](C)O [Example 16-2]			D (D represents pEC50>10 (EC50<0.1 nM))	D (D represents pEC50>10 (EC50<0.1 nM))
COC(=O)NC(C(=O)N1CC(C)CC1c1nc(-c2ccc(-c3cc(Cl)c(NC(=O)c4ccc(N5CCN(C(=O)C6CC6(F)F)CC5C)nc4)cc3C(F)(F)F)cc2)c[nH]1)C(C)C (mixture of isomers) [Example 1-55]			D (D represents pEC50>10 (EC50<0.1 nM))	D (D represents pEC50>10 (EC50<0.1 nM))
COC(=O)N[C@H](C(=O)N1C[C@@H](SC)C[C@H]1c1nc(-c2ccc(-c3ccc(C(=O)Nc4ccc(N5CCN(C(=O)[C@]6(C)CCCN6C(=O)[C@@H](NC(=O)OC)C(C)C)C[C@H]5C)nc4)cc3OC(F)(F)F)cc2)c[nH]1)C(C)C [Example 6-9]	< 0.1	< 0.1		
COC(=O)N[C@H](C(=O)N1C[C@@H](C)C[C@H]1c1nc(-c2ccc(-c3cc(Cl)c(NC(=O)c4ccc(N5C[C@H](C)N(C(=O)[C@H]6CC6(C)C)C[C@H]5C)nc4)cc3C(F)(F)F)cc2)c[nH]1)C(C)C [Example 1-11]			D (D represents pEC50>10 (EC50<0.1 nM))	D (D represents pEC50>10 (EC50<0.1 nM))
COC(=O)N[C@H](C(=O)N1[C@@H](C)CC[C@H]1c1nc(-c2ccc(-c3cc(Cl)c(C(=O)Nc4ccc(N5CCN(C(=O)C(C)(C)C)C[C@H]5C)nc4)cc3OC(F)(F)F)cc2)c[nH]1)C1CCOCC1 [Example 18-5]			D (D represents pEC50>10 (EC50<0.1 nM))	D (D represents pEC50>10 (EC50<0.1 nM))
